ChEMBL document CHEMBL1201862, “PubChem BioAssay data set” (2004)
Calls of active or inactive are those of the source.

Assays:
[1] = target: T1, Estrogen receptor (Homo sapiens, UniProt P03372);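 note: potency for inhibiting coactivator peptide recruitment to the receptor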
T1 sequence (P03372 whole entry): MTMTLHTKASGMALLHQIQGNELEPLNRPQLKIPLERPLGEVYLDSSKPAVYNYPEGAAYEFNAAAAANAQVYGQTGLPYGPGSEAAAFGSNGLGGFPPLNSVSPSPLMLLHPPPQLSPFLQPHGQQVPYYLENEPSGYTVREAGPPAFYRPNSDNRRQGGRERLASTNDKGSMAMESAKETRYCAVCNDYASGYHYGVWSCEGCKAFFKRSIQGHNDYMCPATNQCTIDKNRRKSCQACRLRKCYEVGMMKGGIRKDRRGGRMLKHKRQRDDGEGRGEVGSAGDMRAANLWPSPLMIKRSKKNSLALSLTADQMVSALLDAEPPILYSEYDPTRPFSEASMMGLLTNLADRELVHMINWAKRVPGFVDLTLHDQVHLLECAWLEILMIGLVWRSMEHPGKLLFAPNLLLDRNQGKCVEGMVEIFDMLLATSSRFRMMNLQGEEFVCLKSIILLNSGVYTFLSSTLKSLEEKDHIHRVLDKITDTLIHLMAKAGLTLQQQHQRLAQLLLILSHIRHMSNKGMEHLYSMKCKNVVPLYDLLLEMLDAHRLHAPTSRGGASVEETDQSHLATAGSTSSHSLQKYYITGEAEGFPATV

[2] = target: Glyceraldehyde-3-phosphate dehydrogenase (Homo sapiens, UniProt P04406)
[3] = target: T2, Bcl-2-related protein A1 (Mus musculus, UniProt Q07440); test: Bfl-1 inhibitors blocking BH3 peptide binding, confirmation, biochemical, TR-FRET, mouse Bfl-1 (AID 621);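 note: TR-FRET binding of GST-Bfl-1 to FITC-labelled Bid peptide via terbium antibody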
T2 sequence (Q07440 whole entry): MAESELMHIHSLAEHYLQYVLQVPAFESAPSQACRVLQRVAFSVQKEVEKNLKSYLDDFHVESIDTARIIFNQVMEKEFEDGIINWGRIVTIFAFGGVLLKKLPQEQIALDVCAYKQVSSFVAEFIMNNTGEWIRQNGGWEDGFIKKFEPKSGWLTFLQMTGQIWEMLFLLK

[4] = target: T2, Bcl-2-related protein A1; test: Bfl-1 binding inhibitors, SAR follow-up, biochemical, fluorescence polarization (AID 1070)
[5] = insulin promoter down-regulators in MIN6 cells, imaging, high-content screening, mouse beta cells (AID 1628); format: functional
[6] = cytotoxicity in MIN6 insulinoma cells, dose response, cytotoxicity control, cell-based, mouse insulinoma (AID 2122); format: functional;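 note: confirmatory high-throughput counterscreen run to flag cytotoxic compounds; mouse MIN-6 beta cells carrying an insulin promoter eGFP reporter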
[7] = HEp-2 cell cytotoxicity, dose response, cytotoxicity control for RSV inhibitor project, HTS (AID 2410); format: functional; settings: human respiratory syncytial virus
[8] = cells
[9] = target: T3, Short transient receptor potential channel 4 (Mus musculus, UniProt Q9QUQ5); test: mouse TRPC4 channel activators, dose response, cell-based, HEK293 TRPC4/mu-opioid, Fluo-4 calcium (AID 434937); format: functional
T3 sequence (Q9QUQ5 whole entry): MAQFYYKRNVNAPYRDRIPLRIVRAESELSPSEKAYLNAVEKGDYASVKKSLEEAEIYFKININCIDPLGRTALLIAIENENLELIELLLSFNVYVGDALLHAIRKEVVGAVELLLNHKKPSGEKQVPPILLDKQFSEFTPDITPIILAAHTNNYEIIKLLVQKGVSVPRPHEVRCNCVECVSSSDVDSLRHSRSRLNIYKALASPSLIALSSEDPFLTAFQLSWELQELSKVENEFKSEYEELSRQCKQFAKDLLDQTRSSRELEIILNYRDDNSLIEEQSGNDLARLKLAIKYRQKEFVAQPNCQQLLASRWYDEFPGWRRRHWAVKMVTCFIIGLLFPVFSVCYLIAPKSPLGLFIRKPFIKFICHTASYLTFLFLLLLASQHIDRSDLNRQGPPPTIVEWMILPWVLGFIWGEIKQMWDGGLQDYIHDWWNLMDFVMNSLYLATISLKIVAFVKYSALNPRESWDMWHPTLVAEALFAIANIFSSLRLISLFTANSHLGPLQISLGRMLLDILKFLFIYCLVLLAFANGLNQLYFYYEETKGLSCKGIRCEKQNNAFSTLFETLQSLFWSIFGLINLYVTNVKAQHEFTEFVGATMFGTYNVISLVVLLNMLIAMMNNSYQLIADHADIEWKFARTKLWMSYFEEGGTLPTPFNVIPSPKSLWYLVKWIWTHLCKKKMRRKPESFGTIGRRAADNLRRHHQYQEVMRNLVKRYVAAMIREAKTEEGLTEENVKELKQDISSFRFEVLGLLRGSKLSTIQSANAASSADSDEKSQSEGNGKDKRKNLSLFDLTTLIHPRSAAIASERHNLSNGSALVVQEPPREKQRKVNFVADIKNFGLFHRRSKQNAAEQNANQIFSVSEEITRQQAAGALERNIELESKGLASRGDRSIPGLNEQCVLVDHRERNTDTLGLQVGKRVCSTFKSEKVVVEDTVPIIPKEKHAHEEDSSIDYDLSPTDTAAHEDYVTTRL

[10] = target: T4, Carboxy-terminal domain RNA polymerase II polypeptide A small phosphatase 1 (Homo sapiens, UniProt Q9GZU7); test: inhibitors of CTDSP1, concentration-response testing, biochemical assay, absorbance-based, actives from ultra-high-throughput screening (AID 540297); format: functional
T4 sequence (Q9GZU7 whole entry): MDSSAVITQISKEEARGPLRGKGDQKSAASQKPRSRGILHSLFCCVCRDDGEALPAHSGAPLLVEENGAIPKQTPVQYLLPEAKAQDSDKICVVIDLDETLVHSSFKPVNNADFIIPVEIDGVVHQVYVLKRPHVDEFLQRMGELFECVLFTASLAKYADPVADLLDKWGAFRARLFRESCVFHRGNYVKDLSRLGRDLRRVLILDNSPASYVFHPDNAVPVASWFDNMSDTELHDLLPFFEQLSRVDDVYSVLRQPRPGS

[11] = system: Escherichia coli; test: microbe, parasite or virus in culture
[12] = system: Streptococcus sp. 'group A'; test: growth inhibition of control SK(-) GAS strain, dose response, counter-screen for streptokinase expression inhibitor project, luminescence, kanamycin, BacTiterGlo, confirmation (AID 1900); format: functional, organism-based
[13] = target: T5, Streptokinase A (Streptococcus pyogenes serotype M1, UniProt P10520); test: S. pyogenes streptokinase expression inhibitors, potency, dose response, plasminogen activation absorbance, OD405 (AID 1914); format: functional, Streptococcus pyogenes M1 GAS;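 note: secreted streptokinase activity via plasminogen activation per viability signal from cell pellet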
T5 sequence (P10520 whole entry): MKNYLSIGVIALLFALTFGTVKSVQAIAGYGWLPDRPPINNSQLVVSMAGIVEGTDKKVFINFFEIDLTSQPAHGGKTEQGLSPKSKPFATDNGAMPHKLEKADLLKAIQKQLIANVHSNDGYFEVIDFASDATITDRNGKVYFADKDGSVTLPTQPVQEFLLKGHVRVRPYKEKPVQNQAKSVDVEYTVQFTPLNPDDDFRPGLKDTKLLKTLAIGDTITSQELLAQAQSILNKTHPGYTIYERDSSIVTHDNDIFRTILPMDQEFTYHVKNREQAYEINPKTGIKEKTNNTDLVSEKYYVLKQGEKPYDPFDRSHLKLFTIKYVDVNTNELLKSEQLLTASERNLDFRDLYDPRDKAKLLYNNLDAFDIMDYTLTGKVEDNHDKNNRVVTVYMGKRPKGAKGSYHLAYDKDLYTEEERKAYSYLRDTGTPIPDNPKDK

[14] = system: Streptococcus; test: Group A Streptococcus viability loss, dose response, counter-screen for streptokinase expression inhibitor project, luminescence, BacTiterGlo (AID 1915); format: functional, organism-based;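 note: potency for reduction of bacterial viability or growth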
[15] = Luminescence Cell-Based Dose Retest to Confirm Inhibitors of Cancer Stem Cells. [Related pubchem assays (depositor defined):AID2717, AID2721]; format: functional; settings: Homo sapiens
[16] = target: G-protein coupled receptor 55 (Homo sapiens, UniProt Q9Y2T6); test: GPR55 antagonists blocking LPI-driven arrestin recruitment, primary screen, imaging, U2OS, beta-arrestin-GFP, LPI agonist (AID 2013); format: functional;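 note: antagonist potency measured as reduced agonist-driven arrestin aggregation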
[17] = system: Vero; test: cells; format: functional, cell-based; settings: Chlorocebus sabaeus
[18] = system: Vero; test: cells; format: functional; settings: Chlorocebus sabaeus
[19] = target: NS3 (Hepatitis C virus, UniProt A3EZJ3); test: PubChem AID 2173; design: species or system Hepacivirus hominis
[20] = target: Estrogen receptor beta (Homo sapiens, UniProt Q92731); test: ERβ–SRC-3 coactivator interaction inhibitors, confirmation, orthogonal assay, biochemical, ELISA, streptavidin-HRP readout (AID 1060)
[21] = system: HEK293; test: NOD1 signaling inhibitors, primary screen, cell-based, luminescence, uHTS (AID 1578); format: functional; settings: Homo sapiens
[22] = system: HEK293; test: cells; format: functional, cell-based; settings: Homo sapiens
[23] = system: HEK293; test: cells; format: functional, cell-based; settings: Homo sapiens; remark: listed apart in the source
[24] = system: HEK293; test: NOD2 signaling inhibitors in MDP-stimulated cells, cell-based, uHTS, luminescence (AID 2001); format: functional; settings: Homo sapiens
[25] = target: Paired box protein Pax-8 (Homo sapiens, UniProt Q06710); test: inhibitors of PAX8-driven TPO luciferase reporter, dose response, RMG-I cells, cherry-pick (AID 687027); format: functional, cell-based;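 note: luciferase reporter driven by Pax8 target thyroperoxidase promoter measured by SteadyGlo luminescence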
Sequence of Paired box protein Pax-8 (Q06710 whole entry): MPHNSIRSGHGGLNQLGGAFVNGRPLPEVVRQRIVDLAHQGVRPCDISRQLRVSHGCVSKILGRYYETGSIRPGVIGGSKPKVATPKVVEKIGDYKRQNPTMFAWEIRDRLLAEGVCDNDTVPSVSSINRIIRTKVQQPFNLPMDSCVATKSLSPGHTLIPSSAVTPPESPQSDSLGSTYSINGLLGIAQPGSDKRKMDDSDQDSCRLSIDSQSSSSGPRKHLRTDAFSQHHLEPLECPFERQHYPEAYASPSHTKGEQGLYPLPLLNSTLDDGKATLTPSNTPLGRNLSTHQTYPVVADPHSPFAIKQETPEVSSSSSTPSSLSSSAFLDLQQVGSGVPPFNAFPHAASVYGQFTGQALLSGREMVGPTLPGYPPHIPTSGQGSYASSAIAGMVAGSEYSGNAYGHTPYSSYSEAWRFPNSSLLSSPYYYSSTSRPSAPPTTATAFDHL

Sequence of Estrogen receptor beta (Q92731 whole entry): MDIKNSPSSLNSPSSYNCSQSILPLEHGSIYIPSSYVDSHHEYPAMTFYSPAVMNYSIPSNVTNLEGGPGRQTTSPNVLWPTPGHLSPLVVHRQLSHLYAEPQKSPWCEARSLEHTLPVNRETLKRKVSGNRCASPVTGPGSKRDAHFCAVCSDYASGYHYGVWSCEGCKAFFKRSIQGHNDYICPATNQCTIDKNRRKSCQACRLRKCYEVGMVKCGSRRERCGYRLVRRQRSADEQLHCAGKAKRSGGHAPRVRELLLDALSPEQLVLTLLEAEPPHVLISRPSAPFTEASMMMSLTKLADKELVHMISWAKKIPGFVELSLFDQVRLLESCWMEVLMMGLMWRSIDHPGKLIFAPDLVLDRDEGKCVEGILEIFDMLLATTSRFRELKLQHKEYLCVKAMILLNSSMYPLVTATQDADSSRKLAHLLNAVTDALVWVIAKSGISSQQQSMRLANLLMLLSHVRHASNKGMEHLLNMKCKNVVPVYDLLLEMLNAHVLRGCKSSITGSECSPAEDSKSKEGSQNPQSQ
Sequence of Glyceraldehyde-3-phosphate dehydrogenase (P04406 whole entry): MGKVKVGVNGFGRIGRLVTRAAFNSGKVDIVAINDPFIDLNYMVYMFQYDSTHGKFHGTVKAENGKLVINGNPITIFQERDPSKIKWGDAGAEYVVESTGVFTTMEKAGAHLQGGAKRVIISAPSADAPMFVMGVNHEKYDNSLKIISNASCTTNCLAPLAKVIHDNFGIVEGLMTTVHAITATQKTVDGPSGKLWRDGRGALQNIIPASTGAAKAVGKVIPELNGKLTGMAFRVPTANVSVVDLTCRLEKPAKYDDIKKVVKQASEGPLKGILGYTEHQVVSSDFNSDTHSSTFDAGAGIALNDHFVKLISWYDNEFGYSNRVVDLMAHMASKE
Sequence of G-protein coupled receptor 55 (Q9Y2T6 whole entry): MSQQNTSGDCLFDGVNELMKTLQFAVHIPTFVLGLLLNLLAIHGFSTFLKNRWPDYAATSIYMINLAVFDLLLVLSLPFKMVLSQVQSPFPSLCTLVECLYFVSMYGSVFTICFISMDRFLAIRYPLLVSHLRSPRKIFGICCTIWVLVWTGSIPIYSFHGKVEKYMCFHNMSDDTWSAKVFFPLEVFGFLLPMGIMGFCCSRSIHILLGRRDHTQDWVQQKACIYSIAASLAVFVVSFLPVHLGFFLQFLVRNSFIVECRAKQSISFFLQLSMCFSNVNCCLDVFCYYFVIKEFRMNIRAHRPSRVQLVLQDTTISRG
Sequence of NS3 (A3EZJ3 whole entry): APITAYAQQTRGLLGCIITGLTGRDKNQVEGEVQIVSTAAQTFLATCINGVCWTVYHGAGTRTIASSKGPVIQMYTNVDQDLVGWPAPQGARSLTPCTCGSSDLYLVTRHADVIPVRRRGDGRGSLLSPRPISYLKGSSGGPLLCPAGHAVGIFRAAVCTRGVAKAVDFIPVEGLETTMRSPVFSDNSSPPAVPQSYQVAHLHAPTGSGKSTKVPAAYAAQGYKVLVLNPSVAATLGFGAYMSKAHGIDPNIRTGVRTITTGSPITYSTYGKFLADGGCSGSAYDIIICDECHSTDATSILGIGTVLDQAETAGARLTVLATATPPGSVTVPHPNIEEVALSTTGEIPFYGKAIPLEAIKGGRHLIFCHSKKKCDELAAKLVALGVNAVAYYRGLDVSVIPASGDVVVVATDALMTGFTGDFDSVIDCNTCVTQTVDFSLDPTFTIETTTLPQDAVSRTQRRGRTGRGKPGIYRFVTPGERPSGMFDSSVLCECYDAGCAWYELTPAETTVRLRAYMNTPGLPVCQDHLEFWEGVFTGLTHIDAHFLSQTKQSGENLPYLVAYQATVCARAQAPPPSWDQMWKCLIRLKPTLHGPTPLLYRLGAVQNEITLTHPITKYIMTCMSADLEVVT

## C=CCn1c(=O)[nH]c2cc(C(=O)N3CCN(c4ccc(C(C)=O)cc4)CC3)ccc2c1=O
[1]
  IC50: > 50 µM (not active)

## CN1CCN(C2=C(Cl)C(=O)N(c3c(Cl)cccc3Cl)C2=O)CC1
[2]
  IC50: > 100 µM (not active)
[3]
  IC50: 3.72 µM (active)
[4]
  IC50: 13.4 µM (active)

## C[C@H]1CC[C@H]2C(=O)N3[C@H](c4ccccc4Br)[C@@H](C)CC[C@H]3C(=O)N2[C@@H]1c1ccccc1Br
[5]
  IC50: 2.32 µM (active)
[6]
  IC50: 4.2 µM (active)

## O=C(O)c1ccccc1Nc1ccc(OC(F)F)cc1
[7]
  CC50: 23.8 µM (active)
[8]
  IC50: 40.9 µM (active)

## CCCCCSc1nnc2c(n1)OC(c1cccn1C)N(C(C)=O)c1ccccc1-2 (stereo not drawn)
[9]
  EC50: 10.6 µM (active)

## O=C(CSc1nc(-c2ccc(F)cc2)cs1)NC(=O)NCc1ccco1
[1]
  IC50: > 50 µM (not active)
[10]
  IC50: 18.8 µM (active)

## COC(=O)c1cc(NC2c3ccccc3C(=O)N2c2ccc(Cl)cn2)cc(C(=O)OC)c1 (stereo not drawn)
[1]
  IC50: > 50 µM (not active)

## Cc1ccc(OCCOCCNC(C)(C)C)c([N+](=O)[O-])c1
[11]
  AC50: 46.9 µM (active)

## Brc1ccc2[nH]c3c(N4CCc5ccccc5C4)ncnc3c2c1
[5]
  IC50: 1.43 µM (active)
[12]
  EC50: 5.55 µM (active)
[6]
  IC50: 1.28 µM (active)
[13]
  EC50: 10.9 µM (active)
[14]
  EC50: > 150 µM (not active)
[15]
  AC50: 20.4 µM (active)

## CC(C)N(C(=O)CSc1nc2ccccc2n1-c1ccccc1)C(C)C
[16]
  IC50: 3.82 µM (active)
[15]
  AC50: 5.12 µM (active)

## COc1ccc(C(CNC(=O)Cc2ccc(-c3ccccc3)cc2)N(C)C)cc1 (stereo not drawn)
[9]
  EC50: 0.267 µM (active)

## OCCC1CN(Cc2cccn2-c2nccs2)CCN1CCc1ccccc1 (stereo not drawn)
[8]
  IC50: 30.3 µM (active)

## Cc1cc2cc(CN(CCN(C)C)C(S)=NCc3ccco3)c(O)nc2cc1C
[17]
  IC50: 10.4 µM (active)
[18]
  CC50: > 25 µM (active)

## Cc1cccc(N2C(=O)C(O)=C(C(=O)c3cccs3)C2c2cccc(Oc3ccccc3)c2)n1 (stereo not drawn)
[19]
  IC50: 3.02 µM (active)

## Cc1cc(OCCCn2ccnc2)ccc1[N+](=O)[O-]
[9]
  EC50: 4.73 µM (active)

## O=C(Nc1ccccc1Cl)C(Cl)C(=O)c1ccccc1 (stereo not drawn)
[16]
  IC50: 11.2 µM (inactive)

## O=C(Nc1ccc(F)cc1F)c1noc2c1CCC2
[20]
  IC50: > 50 µM (not active)

## CCCOc1ccccc1/C=C1\SC(N2CCCCC2)=NC1=O
[7]
  CC50: 44.7 µM (active)
[17]
  IC50: 5.33 µM (active)
[18]
  CC50: > 25 µM (active)

## Cc1noc2ncnc(N3CCN(c4cccc(Cl)c4)CC3)c12
[21]
  EC50: 10.4 µM (active)
[22]
  IC50: 8.79 µM (active)
[23]
  IC50: > 20 µM (inactive)
[24]
  IC50: 10.3 µM (inactive)

## CC1CCCN(C(=O)c2nn(C)c3c2CSc2ccccc2-3)C1 (stereo not drawn)
[11]
  AC50: 48.3 µM (active)

## Cc1sc2nc(C3CC3)nc(SCC(=O)N3c4ccccc4CC3C)c2c1C (stereo not drawn)
[7]
  CC50: 7.61 µM (active)
[8]
  IC50: 3.98 µM (active)

## N#Cc1c(NC(=O)CN2CCN(c3ccccc3)CC2)sc2c1CCC2
[20]
  IC50: 44.5 µM (not active)

## O=C1C(Cl)=C(Cl)C(=O)N1c1cccc([N+](=O)[O-])c1
[2]
  IC50: > 100 µM (not active)
[3]
  IC50: 16.4 µM (active)
[4]
  IC50: 11.9 µM (active)

## CC12CCC3C(CCC4(O)CC(O)CCC34C=NO)C1(O)CCC2C1=COC(=O)C1 (stereo not drawn)
[17]
  IC50: > 25 µM (active)
[18]
  CC50: 0.62 µM (active)
[25]
  AC50: 1.12 µM (active)

## C=CCN1C(=O)c2ccc(C(=O)N3CCC(C(N)=O)CC3)cc2C1=O
[11]
  AC50: 57.7 µM (active)

## COc1ccc(-n2c(SCC(=O)/C(C#N)=C(\C)N)nc3ccccc3c2=O)cc1OC
[8]
  IC50: 2.62 µM (active)
